Source: patent US11377473B2, “Albumin-binding prodrugs of auristatin E derivatives” (priority 2017, dated 2022)

What was measured:
[1] = Accelerated degradation of lyophilized auristatin formulations; format: physicochemical; conditions: 55° C. for up to 264 hours
Procedure: The APIs were dissolved in the lyophilization buffer which contained 2-HPβCD, 10 mM sodium citrate pH 6.2, 50% tert-butyl alcohol (V/V)). For the AE-Keto derivatives 2% (w/v) 2-HPβCD was employed to dissolve the AE-Keto APIs at 1.27 mM concentration; for the AE-Ester derivatives 4% (w/v) 2-HPβCD was used to dissolve the APIs at 1.05 mM concentration. The dissolved APIs were sterile filtered using an Acrodisc Fluorodyne II syringe filter (0.2 μm). The sterile solutions were pipetted into lyophilization vials which were then partially sealed using a rubber stopper. The vials were subsequently placed into the freeze dryer for lyophilization. The vials were frozen on the freeze dryer shelf at −40° C. for 2 hours, after 2 hours main drying was started. Main drying was run for 26 hours, parameters: shelf temperature −20° C., vacuum 0.0048 mbar. After main drying, final drying was initiated. Final drying was run for 16 hours, parameters: shelf temperature 20° C., vacuum 0.0047 mbar. […]
The sealed vials were incubated at 55° C. using an Eppendorf Thermomixer C with a plate insert (Smartblock) and lid. […] Stability of the APIs was determined by HPLC (method 8, 254 nm for AE-Keto derivatives, 310 nm for AE-Ester derivatives). The percentage of maleimide hydrolysis at each time point was determined by comparison to the AUC for each API at time 0.

albumin in murine plasma = target: T1, albumin in murine plasma (Mus musculus, UniProt P07724); assay: Binding kinetics to albumin in murine plasma; format: in vitro ADME, CD1 murine; conditions: 37° C.
T1 construct: CD1 murine plasma and Sprague Dawley rat plasma were removed from −80° C. storage; from tissue; host or cells: CD1 murine plasma (frozen, thawed, filtered)
Procedure: CD1 murine plasma and Sprague Dawley rat plasma were removed from −80° C. storage and allowed to reach room temperature. The thawed plasma was spun down at 13.6 kRPM for 60 seconds, the supernatant was filtered through a filter needle (5 μm) and subsequently through a 0.45 μm CA membrane.
All binding experiments were carried out in triplicate. The plasma was incubated at 37° C. using an Eppendorf Thermomixer C. After 30 minutes incubation 40 μL of the appropriate albumin-binding auristatin-Sulf07 derivative was dissolved in its reconstitution solution and added to the plasma. Samples (40 μL) were taken after 15 seconds, 2 minutes, 4 minutes, 8 minutes and 15 minutes (5 samples).
The samples were immediately added to 160 μL of acetonitrile (containing 4 μg/mL of 'MMAE as an internal standard) and vortexed for 1 minute.
The solutions were pipetted into an Impact plasma precipitation plate (shaken for 60 seconds) and filtered by vacuum onto a 96 well plate. Remaining drug was determined by LCMS quantification (method 5, 30 μL injection) using MRM MS2 negative mode (multiple reaction monitoring). Parent ions: auristatin F (Mass-744.8), AE-Keto-Sulf07 (Mass-1135.1) and AE-Ester-Sulf07 (Mass-1283.2). Percentage of binding was determined by comparing the AUC for AE-Keto-Sulf07 and AE-Ester-Sulf07 to calibration curves generated by LCMS for each compound.

[2] = test system: malignant melanoma cancer model A375; assay: Human malignant melanoma cancer model A375, small tumors; format: in vivo, NMRI nude mice
Procedure: Feed and water were provided ad libitum. […] Identification used: ear mark and cage labels. […] Tumor volumes were calculated according to the following equation: […]
The evaluation of auristatin E and the albumin-binding auristatin E derivative AE-Keto-Sulf07 in a human malignant melanoma cancer model A375 was carried out as described in the general procedure for cell-line-derived xenograft models.
Stock solutions were prepared as follows: • 1) 7 mice, 29 g average weight, 135 mm^3 average median tumor volume on day of randomization: 0.3 mg/kg auristatin E TFA salt (AE equiv.) dosed twice weekly for 3 weeks on day 0, 6, 9, 13, 16, 19≡0.35 mg/kg≡7.1 μg/20 g mouse.

[3] = test system: NSCLC xenograft model LXFA737; assay: Human non-small cell lung cancer model LXFA737, large tumors; format: in vivo, NMRI nude mice
From the text: (§1) Mice were kept under a 14-hour light/10-hour dark, artificial light cycle. The animals were fed with autoclaved Teklad Global 19% Protein Extruded Diet (T.2019S.12) from Envigo RMS SARL and had access to sterile filtered and acidified (pH 2.5) tap water which was changed twice weekly. Feed and water were provided ad libitum. […] Animals were routinely monitored twice daily on working days and daily on Saturdays and Sundays. Starting on day 0, animals were weighed twice a week. Relative body weights (RBW) of individual animals were calculated by dividing the individual absolute body weight on day X (BWx) by the individual body weight on the day of randomization multiplied by 100%. […] Tumor volumes were calculated according to the following equation: […]
(§2) Statistical analysis was only carried out if at least 50% of the initially randomized animals in a relevant group were still alive. Comparisons between test groups were carried out for the same days. By convention, p-values ≤0.05 indicate significance of tumor inhibition. Statistical calculations were performed using GraphPad Prism bioanalytic software (San Diego Calif. USA, www.graphpad.com).
The evaluation of auristatin E and the albumin-binding auristatin E derivative AE-Keto-Sulf07 in a human non-small cell lung cancer model LXFA737 was carried out as described in the general procedure for patient-derived xenograft models.
Sample preparation: 51 mg weighed in a 100 mL vial dissolved in 36.5 mL 50/50 tert-butanol/10 mM sodium citrate buffer, 3% 2-HPßCD—pH 6.2; 2.4 mL were aliquoted in 4 mL vials.

[4] = test system: renal cell cancer model RXF631; assay: Human renal cell cancer model RXF631, small tumors; format: in vivo, NMRI nude mice
From the text: as §1, §2
The initial evaluation of auristatin E and the albumin-binding auristatin E derivative AE-Ester-Sulf07 in a human renal cell cancer model RXF631 was carried out as described in the general procedure for a patient-derived xenograft model.

[5] = 3.0 mg/kg six times twice weekly

T1 sequence (P07724 25-608): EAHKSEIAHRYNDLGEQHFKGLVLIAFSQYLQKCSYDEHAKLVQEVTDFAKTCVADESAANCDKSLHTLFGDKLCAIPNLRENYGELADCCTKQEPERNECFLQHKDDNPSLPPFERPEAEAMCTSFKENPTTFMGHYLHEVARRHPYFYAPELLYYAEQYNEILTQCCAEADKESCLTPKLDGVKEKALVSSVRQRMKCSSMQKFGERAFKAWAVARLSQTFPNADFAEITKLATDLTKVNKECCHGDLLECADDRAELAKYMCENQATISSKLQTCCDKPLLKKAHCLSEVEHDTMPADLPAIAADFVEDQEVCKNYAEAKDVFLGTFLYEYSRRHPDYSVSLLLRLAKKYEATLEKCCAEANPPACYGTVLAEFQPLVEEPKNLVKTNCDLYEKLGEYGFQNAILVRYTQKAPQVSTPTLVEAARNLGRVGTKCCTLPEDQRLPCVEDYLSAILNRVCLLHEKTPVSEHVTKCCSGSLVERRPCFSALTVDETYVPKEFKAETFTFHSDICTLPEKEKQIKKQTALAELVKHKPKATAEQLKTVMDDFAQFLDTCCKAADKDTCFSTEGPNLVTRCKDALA

Row | Compound | stability under accelerated degradation conditions (maleimide hydrolysis) [1] | albumin binding in plasma (albumin in murine plasma) | body weight [2, 5] | side effects [2, 5] | tumor response ([2]; 3.0 mg/kg six times twice weekly, day 19 until end of study on day 37) | p, antitumor efficacy versus auristatin E ([2]; 3.0 mg/kg versus auristatin E 0.3 mg/kg, six injections twice weekly, day 27 to day 37) | final tumor volume ([2]; 3.0 mg/kg, day 37) | side effects ([3]; 4.5 mg/kg 8 times twice weekly) | tumor response ([3]; 4.5 mg/kg 8 times twice weekly, day 15 until end of study on day 59) | p, antitumor efficacy versus auristatin E ([3]; 4.5 mg/kg versus auristatin E 0.3 mg/kg, 8 times twice weekly, day 28) | tumor response ([2]; 0.3 mg/kg six times twice weekly, until day 21) | antitumor activity ([3]; 0.3 mg/kg 8 times twice weekly) | tumor response ([4]; 0.3 mg/kg twice weekly, up to day ˜40) | minimum tumor volume ([4]; 2.2 mg/kg (3.0 mg/kg on day 15 and 19) twice weekly) | tumor response ([4]; 2.2 mg/kg (3.0 mg/kg on day 15 and 19) twice weekly, day 24 to day 53) | p, antitumor efficacy versus auristatin E ([4]; 2.2 mg/kg (3.0 mg/kg on injection day 15 and 19) versus auristatin E 0.3 mg/kg, twice weekly) | side effects ([4]; 2.2-3.0 mg/kg twice weekly) | animals lost ([4]; 2.2-3.0 mg/kg, on day 20, 43 and 66) | transient body weight loss ([4]; 2.2-3.0 mg/kg, reached on day 31)
1 | CC[C@H](C)[C@@H]([C@@H](CC(=O)N1CCC[C@H]1[C@H](OC)[C@@H](C)C(=O)N[C@H](C)C(=NNC(=O)c1ccc(NC(=O)CCCCCN2C(=O)C=CC2=O)cc1S(=O)(=O)O)c1ccccc1)OC)N(C)C(=O)[C@@H](NC(=O)[C@H](C(C)C)N(C)C)C(C)C [AE-Keto-Sulf07, 2-(2-((R)-2-((2R,3R)-3-((S)-1-((3R,4S,5S)-4-((S)-2-((S)-2-(dimethylamino)-3-methylbutanamido)-N,3-dimethylbutanamido)-3-methoxy-5-methylheptanoyl)pyrrolidin-2-yl)-3-methoxy-2-methylpropanamido)-1-phenylpropylidene)hydrazine-1-carbonyl)-5-(6-(2,5-dioxo-2,5-dihydro-1H-pyrrol-1-yl)hexanamido)benzenesulfonic acid] | more stable than the respective EMCH derivatives | very rapid | only a slight reduction in body weight growth compared to the control | no detectable side effects | complete remission (complete remission <10%) | < 0.01 | 1 mm^3 | No side effects were registered | partial tumor remission | < 0.01 | – | – | – | – | – | – | – | – | –
2 | CC[C@H](C)[C@@H]([C@@H](CC(=O)N1CCC[C@H]1[C@H](OC)[C@@H](C)C(=O)N[C@H](C)[C@@H](O)c1ccccc1)OC)N(C)C(=O)[C@@H](NC(=O)[C@H](C(C)C)N(C)C)C(C)C [auristatin E] | – | – | – | – | – | – | – | – | – | – | stable disease (stable disease >75-125%) | did not show any activity | stable disease (stable disease >75-125%) | – | – | – | – | – | –
3 | 2-(2-(1-(4-(((1S,2R)-2-((2R,3R)-3-((S)-1-((3R,4R,5S)-4-((S)-2-((R)-2-(dimethylamino)-3-methylbutanamido)-N,3-dimethylbutanamido)-3-methoxy-5-methylheptanoyl)pyrrolidin-2-yl)-3-methoxy-2-methylpropanamido)-1-phenylpropoxy)carbonyl)phenyl)ethylidene)hydrazine-1-carbonyl)-5-(6-(2,5-dioxo-2,5-dihydro-1H-pyrrol-1-yl)hexanamido)benzenesulfonic acid [AE-Ester-Sulf07] | more stable than the respective EMCH derivatives | very rapid | – | – | – | – | – | – | – | – | – | – | – | 1 mm^3 | complete remission (complete remission <10%) | < 0.05 | Wounds due to biting and scratching were also observed starting from day 17 | Two mice died, and one had to be sacrificed for general bad conditions | 9%
